The target of the test is Dihydroorotate dehydrogenase (quinone), mitochondrial (Homo sapiens, UniProt Q02127). Description: DCIP-linked Assay. To be noted: pH 8. How it is done:
Recombinant human DHODH (final enzyme concentration between 20 and 60 nM in the assay well) were incubated at 37 °C in 50 mM Tris-HCl, 0.1% Triton X-100, 1 mM KCN, pH 8.0 with coenzyme Q10 (100 µM), and the tested compounds at different concentrations (final DMSO concentration 0.1% v/v). The reaction was initiatedby the addition of DHO (500 µM), and the reduction of DCIP (50 µM) was monitored through a decrease in absorbance at 650 nm.
Chain of Dihydroorotate dehydrogenase (quinone), mitochondrial (Q02127 whole entry): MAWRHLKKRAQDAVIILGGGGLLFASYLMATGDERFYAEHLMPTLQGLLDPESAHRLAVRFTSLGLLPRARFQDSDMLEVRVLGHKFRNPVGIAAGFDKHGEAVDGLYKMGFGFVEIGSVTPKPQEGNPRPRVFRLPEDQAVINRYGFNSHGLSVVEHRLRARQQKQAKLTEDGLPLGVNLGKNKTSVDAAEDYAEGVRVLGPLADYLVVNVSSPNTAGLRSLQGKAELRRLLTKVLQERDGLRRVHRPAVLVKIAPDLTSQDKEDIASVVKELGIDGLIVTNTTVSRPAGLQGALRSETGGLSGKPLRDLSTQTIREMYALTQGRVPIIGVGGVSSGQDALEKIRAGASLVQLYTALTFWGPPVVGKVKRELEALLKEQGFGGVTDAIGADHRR
Molecule `CC[C@H](C)[C@@H]1NC(=O)[C@@H]2CCCN2C1=O` [Cyclo L-Pro-L-Ile (Fr. 1-5)] showed a 50% inhibitory concentration (IC50) above 50 µM.
In turn, `O=C1N[C@@H](Cc2ccccc2)C(=O)N2CCC[C@@H]12` [Cyclo L-Pro-L-Phe (Fr. 2-2)] returned an IC50 above 50 µM.
In turn, `CC(C)C[C@@H]1NC(=O)[C@@H]2CCCN2C1=O` [Cyclo L-Pro-L-Leu (Fr. 1-6)] displayed an IC50 above 50 µM.
The molecule `O=C1N[C@@H](Cc2ccccc2)C(=O)N2C[C@H](O)C[C@@H]12` [Cyclo L-OH-Pro-L-Phe (Fr. 1-4)] showed a half-inhibitory concentration (IC50) of 0.773 µM.
With `CC(C)[C@@H]1NC(=O)[C@@H]2CCCN2C1=O` [Cyclo L-Pro-L-Val (Fr. 2-1)] the figure was above 50 µM.

(Values after BindingDB's records for doi:10.1111/cbdd.12530 (Chinese Academy of Sciences, 2015).)
